From ChEMBL document CHEMBL1938330, “Inhibitory effects of polyphenols toward HCV from the mangrove plant Excoecaria agallocha L” (Bioorg Med Chem Lett, 2012)
Blank lines part the entries; values can stand above or below the molecule they belong to.

Experiments:
[1] = Inhibition of Hepatitic C virus NS3/4A protease by FRET assay; design: species or system Hepacivirus hominis
[2] = Selectivity index, ratio of CC50 for human Huh7.5 cells to EC50 for Hepatitis C virus infected in human HuH7.5 cells; type: toxicity, cell-based, Huh-7; details: read-out: Ratio CC50/EC50
[3] = Cytotoxicity against human Huh7.5 cells after 96 hrs by MTT assay; type: cell-based, Huh-7
Hepatitis C virus = test: Antiviral activity against Hepatitis C virus infected in human Huh7.5 cells assessed as inhibition of viral replication after 96 hrs by quantitative RT-PCR analysis; type: functional, organism-based, Hepacivirus hominis; details: Huh-7, 96 h

IC50 [1]: > 10 µg/mL
Structure (SMILES): OC[C@H]1O[C@@H](Sc2c(O)cc(O)c3c2O[C@H](c2cc(O)c(O)c(O)c2)[C@@H](O)C3)[C@H](O)[C@@H](O)[C@@H]1O [EXCOECARIPHENOL B]

IC50 [1]: > 10 µg/mL
Structure (SMILES): OC[C@H]1O[C@@H](Sc2c(O)cc(O)c3c2O[C@H](c2ccc(O)c(O)c2)[C@@H](O)C3)[C@H](O)[C@@H](O)[C@@H]1O [EXCOECARIPHENOL A]

IC50 [1]: > 10 µg/mL
Structure (SMILES): O=C(O[C@@H]1O[C@@H]2COC(=O)c3cc(O)c(O)c(O)c3-c3c(cc(O)c(O)c3O)C(=O)O[C@@H]([C@@H]2O)[C@H]1OC(=O)c1cc(O)c(O)c(O)c1)c1cc(O)c(O)c(O)c1

IC50 [1]: > 10 µg/mL
Structure (SMILES): O=c1oc2c(O)c(O[C@@H]3OC[C@@H](O)[C@H](O)[C@H]3O)cc3c(=O)oc4c(O)c(O)cc1c4c23 [ELLAGIC ACID 4-O-XYLOPYRANOSIDE]

IC50 [1]: > 10 µg/mL
Structure (SMILES): COc1cc(/C=C/CO[C@@H]2O[C@H](CO)[C@@H](O)[C@H](O)[C@H]2O)cc(OC)c1O

IC50 [1]: > 10 µg/mL
Structure (SMILES): O=C(O[C@@H]1O[C@@H]2COC(=O)c3cc(O)c(O)c(O)c3-c3c(cc(O)c(O)c3O)C(=O)O[C@H]([C@H]1O)[C@@H]2OC(=O)c1cc(O)c(O)c(O)c1)c1cc(O)c(O)c(O)c1

IC50 [1]: > 10 µg/mL
Structure (SMILES): O=C1O[C@H]2[C@H](O)[C@@H](OC(=O)c3cc(O)c(O)c4c3[C@@H]3C1=CC(=O)C(O)(O)C3(O)O4)[C@H](OC(=O)c1cc(O)c(O)c(O)c1)O[C@@H]2CO (stereo partly drawn) [FUROSIN]

IC50 [1]: > 10 µg/mL
Structure (SMILES): COc1cc(CO[C@@H]2O[C@H](CO)[C@@H](O)[C@H](O)[C@H]2O)cc(OC)c1O

IC50 ([1]; read-out: IC50): 1.54 µM
Structure (SMILES): COc1ccc2c(O[C@@H]3C[C@H]4C(=O)N[C@]5(C(=O)O)C[C@H]5/C=C\CCCCC[C@H](NC(=O)OC5CCCC5)C(=O)N4C3)cc(-c3csc(NC(C)C)n3)nc2c1 [CILUPREVIR]

EC50 (Hepatitis C virus): 33.2 µM
IC50 ([1]; read-out: IC50): 8.91 µM
Structure (SMILES): O=C1O[C@H]2[C@@H]3OC(=O)c4cc(O)c(O)c(O)c4-c4c(cc(O)c(O)c4O)C(=O)OC[C@H]2O[C@@H](OC(=O)c2cc(O)c(O)c(O)c2)[C@@H]3OC(=O)c2cc(O)c(O)c3c2[C@@H]2C1=CC(=O)[C@](O)(O3)C2(O)O [GERANIIN]
selectivity ratio [2]: 1.9
CC50 at 96 h [3]: 63.4 µM

IC50 [1]: > 10 µg/mL
Structure (SMILES): COc1cc(O[C@@H]2O[C@H](CO)[C@@H](O)[C@H](O)[C@H]2O)cc(OC)c1O [KOABURASIDE]

EC50 (Hepatitis C virus): 13.6 µM
IC50 ([1]; read-out: IC50): 3.45 µM
Structure (SMILES): O=C(O[C@@H]1O[C@@H]2COC(=O)c3cc(O)c(O)c(O)c3-c3c(cc(O)c(O)c3O)C(=O)O[C@H]([C@H]1O)[C@@H]2O)c1cc(O)c(O)c(O)c1 [CORILAGIN]
selectivity ratio [2]: 7.1
CC50 at 96 h [3]: 96.7 µM

IC50 [1]: > 10 µg/mL
Structure (SMILES): COc1cc(O[C@@H]2O[C@H](CO[C@@H]3O[C@H](C)[C@@H](O)[C@H](O)[C@@H]3O)[C@@H](O)[C@H](O)[C@H]2O)ccc1O [CUNEATASIDES D]

Structure (SMILES): Oc1cc(O)c2c(c1)O[C@H](c1cc(O)c(O)c(O)c1)[C@@H](O)C2 [GALLOCATECHIN]
IC50 [1]: > 10 µg/mL

EC50 (Hepatitis C virus): 12.6 µM
IC50 ([1]; read-out: IC50): 6.93 µM
Structure (SMILES): O=C(O[C@@H]1O[C@@H]2COC(=O)c3cc(O)c(O)c4oc5c(O)c(O)cc(c5c34)C(=O)O[C@@H]3[C@H]1OC(=O)c1cc(O)c(O)c4c1[C@@H]1[C@@]5(C[C@]6(O)OC[C@@H](O)[C@@H]6O[C@@H]5C(O)(O)C(O)(O)[C@]1(O)O4)C(=O)O[C@@H]32)c1cc(O)c(O)c(O)c1 [EXCOECARIPHENOL D]
selectivity ratio [2]: 4.5
CC50 at 96 h [3]: 56.2 µM

IC50 [1]: > 10 µg/mL
Structure (SMILES): COC(=O)Cc1c(C(=O)O[C@H]2[C@H](OC(=O)c3cc(O)c(O)c(O)c3)O[C@@H]3COC(=O)c4cc(O)c(O)c(O)c4-c4c(cc(O)c(O)c4O)C(=O)O[C@H]2[C@@H]3O)cc(O)c(O)c1O [EXCOECARIPHENOL C]

IC50 [1]: > 10 µg/mL
Structure (SMILES): Oc1cc(O)c2c(c1)O[C@H](c1ccc(O)c(O)c1)[C@@H](O)C2 [CIANIDANOL]

IC50 [1]: > 10 µg/mL
Structure (SMILES): C[C@@H]1O[C@@H](OC[C@H]2O[C@@H](OCc3ccccc3)[C@H](O)[C@@H](O)[C@@H]2O)[C@H](O)[C@H](O)[C@H]1O [HYDRANGEIFOLIN I]

IC50 [1]: > 10 µg/mL
Structure (SMILES): O=c1c(O[C@@H]2O[C@H](CO)[C@@H](O)[C@H](O)[C@H]2O)c(-c2ccc(O)c(O)c2)oc2cc(O)cc(O)c12 [ISOQUERCETIN]

IC50 [1]: > 10 µg/mL
Structure (SMILES): COc1ccc(CO)cc1O[C@@H]1O[C@H](COC(=O)c2cc(O)c(O)c(O)c2)[C@@H](O)[C@H](O)[C@H]1O

EC50 (Hepatitis C virus): 22.2 µM
IC50 ([1]; read-out: IC50): 9.03 µM
Structure (SMILES): O=C(O)C[C@@H]1C(=O)O[C@H]2[C@@H]3OC(=O)c4cc(O)c(O)c(O)c4-c4c(cc(O)c(O)c4O)C(=O)OC[C@H]2O[C@@H](OC(=O)c2cc(O)c(O)c(O)c2)[C@@H]3OC(=O)c2cc(O)c(O)c3c2[C@H]1[C@H](O)C(=O)O3 [CHEBULAGIC ACID]
selectivity ratio [2]: 4.7
CC50 at 96 h [3]: 105 µM
